{"source": "paper PMC8054307", "about": "(The Journal of pharmacy and pharmacology, 2018)", "key": {"[1]": {"details": "rat, in vivo, po; cited from earlier work"}, "[2]": {"test_system": "cytochrome P450 (CYP450) enzyme system", "details": "cited from earlier work"}, "[3]": {"test": "Pharmacokinetic study of CdG and ETV oral co-administration in rats", "format": "in vivo", "details": "male, Sprague-Dawley, rat, plasma, 1 mg/kg"}, "ETV-resistant HBV": {"test_system": "ETV-resistant HBV", "details": "oral 0.02 mg/kg/day, hu-liver-chimeric mice; cited from earlier work"}, "[4]": {"test_system": "cytochrome P450 (CYP450) enzyme system", "test": "Metabolism by CYP450", "format": "in vitro ADME", "details": "data not shown"}, "[5]": {"test": "Pharmacokinetic study of CdG in rats after i.v. and p.o. administration", "format": "in vivo, Male Sprague-Dawley rats", "details": "1 mg/kg; for half-life: t1/2, rats"}, "[6]": {"test": "Protein binding by ultrafiltration, human plasma", "format": "in vitro ADME", "details": "pooled human plasma"}, "wild-type HBV [7]": {"test_system": "wild-type HBV", "details": "oral 0.02 mg/kg/day, hu-liver-chimeric mice; cited from earlier work"}, "[8]": {"test": "Urinary excretion of CdG in rats", "format": "in vivo, Male Sprague-Dawley rats", "details": "for amount of unchanged CdG accumulated in urine: 9 h after administration"}, "[9]": {"details": "2 days after administration; another study of the authors, ref not given; cited from earlier work"}, "[10]": {"molecular_target": "human serum albumin (HSA) (Homo sapiens, UniProt P02768)", "sequence (P02768 25-609)": "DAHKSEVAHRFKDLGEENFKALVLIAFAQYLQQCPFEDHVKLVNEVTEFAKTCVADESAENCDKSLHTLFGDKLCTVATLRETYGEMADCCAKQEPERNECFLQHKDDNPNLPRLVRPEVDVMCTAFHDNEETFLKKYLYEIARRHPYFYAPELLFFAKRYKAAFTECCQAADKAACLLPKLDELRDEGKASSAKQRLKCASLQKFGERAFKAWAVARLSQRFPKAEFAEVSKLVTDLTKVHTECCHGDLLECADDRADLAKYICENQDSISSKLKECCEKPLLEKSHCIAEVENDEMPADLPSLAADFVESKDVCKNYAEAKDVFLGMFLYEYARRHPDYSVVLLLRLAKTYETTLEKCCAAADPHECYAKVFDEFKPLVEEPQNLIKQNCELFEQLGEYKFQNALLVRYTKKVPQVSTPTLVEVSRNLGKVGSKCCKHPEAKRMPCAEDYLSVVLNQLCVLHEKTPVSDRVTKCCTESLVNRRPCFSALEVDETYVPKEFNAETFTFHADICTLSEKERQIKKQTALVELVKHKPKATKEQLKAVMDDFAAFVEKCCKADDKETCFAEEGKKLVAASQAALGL", "test": "Protein binding by ultrafiltration, HSA", "format": "in vitro ADME", "details": "600 μM HSA, CdG 500 ng/ml"}, "wild-type HBV [11]": {"test_system": "wild-type HBV", "details": "read-out: half-maximal inhibitory concentration (IC50); cited from earlier work"}, "[12]": {"test": "Tissue distribution of CdG to liver and kidney in rats", "format": "in vivo, Male Sprague-Dawley rats", "details": "9 h after i.v. or p.o. 1 mg/kg"}, "[13]": {"test_system": "human α1 acidic glycoprotein (AGP)", "test": "Protein binding by ultrafiltration, AGP", "format": "in vitro ADME", "details": "45 μM AGP, CdG 500 ng/ml"}, "[14]": {"details": "male, Sprague-Dawley, rat, plasma, iv"}, "[15]": {"details": "male, Sprague-Dawley, rat, plasma, po"}}, "note": "“Also recorded” adds a separate entry of the source."}
{"smiles": "CC(C)(C)C(=O)OCOP(=O)(COCCn1cnc2c(N)ncnc21)OCOC(=O)C(C)(C)C", "note": "[adefovir dipivoxil]", "values": [{"measurement": "bioavailability", "setting": "[1]", "value": "approximately 50%"}]}
{"smiles": "C=C1[C@H](CO)[C@@H](O)C[C@@H]1n1cnc2c(=O)[nH]c(N)nc21", "note": "[ETV, entecavir]", "values": [{"measurement": "bioavailability", "setting": "[1]", "value": "approximately 78%"}, {"measurement": "substrate for the CYP450 enzyme system", "setting": "[2]", "value": "not a substrate"}]}
{"smiles": "N#C[C@]1(CO)O[C@@H](n2cnc3c(=O)[nH]c(N)nc32)C[C@@H]1O", "note": "[CdG, 4′-cyano-2′-deoxyguanosine]", "values": [{"measurement": "Tmax", "setting": "[3]", "value": 45, "unit": "min"}, {"measurement": "replication of ETV-resistant HBV", "setting": "ETV-resistant HBV", "value": "significantly blocked"}, {"measurement": "metabolism by CYP450", "setting": "[4]", "value": "rarely metabolized by CYP450"}, {"measurement": "AUC", "setting": "[5]; [14]", "value": "123 ± 28.1", "unit": "ng·h/mL"}, {"measurement": "MRT", "setting": "[5]; [14]", "value": "29.4 ± 3.6", "unit": "min"}, {"measurement": "Vd", "setting": "[5]; [14]", "value": "4.08 ± 0.62", "unit": "L/kg"}, {"measurement": "clearance", "setting": "[5]; [14]", "value": 141, "unit": "mL/min/kg"}, {"measurement": "half-life", "setting": "[5]; [14]", "value": 30, "unit": "min"}, {"measurement": "AUC", "setting": "[5]; [15]", "value": "90.1 ± 5.75", "unit": "ng·h/mL"}, {"measurement": "CL/F", "setting": "[5]; [15]", "value": 185, "unit": "mL/min/kg"}, {"measurement": "Cmax", "setting": "[5]; [15]", "value": "53.8 ± 8.63", "unit": "ng/mL"}, {"measurement": "MRT", "setting": "[5]; [15]", "value": "82.8 ± 7.2", "unit": "min"}, {"measurement": "Tmax", "setting": "[5]; [15]", "value": 45, "unit": "min"}, {"measurement": "half-life", "setting": "[5]; male, Sprague-Dawley, rat, plasma, po, CdG alone", "value": 42, "unit": "min"}, {"measurement": "time to reach undetectable plasma levels after administration", "setting": "[5]; rats, i.v. and p.o.", "value": "≤ 9", "unit": "h"}, {"measurement": "t1/2", "setting": "[5]; rats, p.o., CdG alone", "value": "43.8 ± 7.2", "unit": "min"}, {"measurement": "fraction unbound at 500 ng/ml", "setting": "[6]", "value": "~0.393"}, {"measurement": "replication of wild-type HBV", "setting": "wild-type HBV [7]", "value": "significantly blocked"}, {"measurement": "form excreted into the urine", "setting": "[8]; LC/MS chromatographic profile of urine", "value": "unchanged form"}, {"measurement": "urinary excretion, % of the given dose", "setting": "[8]; i.v. 1 mg/kg, 9 h", "value": 45, "unit": "%"}, {"measurement": "amount of unchanged CdG accumulated in urine", "setting": "[8]; i.v. 1 mg/kg", "value": "about 113 μg"}, {"measurement": "amount of unchanged CdG accumulated in urine", "setting": "[8]; p.o. 1 mg/kg", "value": "~49", "unit": "µg"}, {"measurement": "amount accumulated in the urine, % of the given dose", "setting": "[9]", "value": "about 40%"}, {"measurement": "binding rate to HSA", "setting": "[10]", "value": "about 11.6 ± 0.01%"}, {"measurement": "IC50", "setting": "wild-type HBV [11]", "value": 0.4, "unit": "nM"}, {"measurement": "distribution to liver vs kidney", "setting": "[12]", "value": "higher levels of CdG were distributed to the liver than the kidney; also recorded: distributed to the liver rather than kidney"}, {"measurement": "binding rate to AGP", "setting": "[13]", "value": "about 13.5 ± 0.01%"}]}
